Results on one molecule are retold here after BindingDB's records for patent US12226405 (Novartis, 2025).

The target in this test is Endothelial PAS domain-containing protein 1 (Homo sapiens, UniProt Q99814). Nature of the test: Scintillation Proximal Assay (SPA). The protocol: Compounds (tested using a 14-point dose response with 3-fold compound dilutions from 100 μM to 60 pM) were pre-incubated for 30 min with HIF2α PAS-B domain (236-350, biotinylated on the N-terminus), before addition of the radio-ligand. […] Duplicates were made using 2 different plates, and mean IC50 values were determined using the Helios system based on the following equation: % inhibition=[(high control−sample)/(high control−low control)]×100. The IC50 values in the Tabulated HIF2α activities are the average from 1 to 10 independent experiments.
Chain of Endothelial PAS domain-containing protein 1 (Q99814 whole entry, the tested form may be a part): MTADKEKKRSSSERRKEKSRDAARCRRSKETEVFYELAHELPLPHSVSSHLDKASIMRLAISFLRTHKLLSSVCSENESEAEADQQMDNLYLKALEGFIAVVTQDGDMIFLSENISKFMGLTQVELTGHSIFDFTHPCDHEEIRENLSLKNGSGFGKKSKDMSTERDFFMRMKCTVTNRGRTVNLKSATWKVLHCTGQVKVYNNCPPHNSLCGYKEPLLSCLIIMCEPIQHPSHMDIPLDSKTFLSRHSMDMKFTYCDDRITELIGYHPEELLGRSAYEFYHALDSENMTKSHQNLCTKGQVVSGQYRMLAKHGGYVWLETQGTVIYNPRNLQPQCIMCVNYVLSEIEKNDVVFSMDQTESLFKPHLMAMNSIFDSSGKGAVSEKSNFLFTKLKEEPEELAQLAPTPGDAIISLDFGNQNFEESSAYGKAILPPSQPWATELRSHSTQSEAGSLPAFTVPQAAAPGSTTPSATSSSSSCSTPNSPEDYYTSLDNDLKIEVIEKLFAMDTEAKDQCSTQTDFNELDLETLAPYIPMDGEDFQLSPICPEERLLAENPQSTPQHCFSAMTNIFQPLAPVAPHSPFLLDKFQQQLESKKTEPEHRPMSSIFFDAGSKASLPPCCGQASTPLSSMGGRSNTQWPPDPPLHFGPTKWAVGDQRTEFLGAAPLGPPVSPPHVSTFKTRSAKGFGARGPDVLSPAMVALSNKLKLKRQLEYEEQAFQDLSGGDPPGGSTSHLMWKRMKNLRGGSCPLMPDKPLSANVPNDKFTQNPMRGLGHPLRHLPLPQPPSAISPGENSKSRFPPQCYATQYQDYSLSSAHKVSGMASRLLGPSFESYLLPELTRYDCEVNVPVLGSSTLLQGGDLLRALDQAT

In turn, `FC(F)OC1=CC(C(F)(F)F)=CN2C[C@@]3(CCc4cc(C(F)(F)F)ccc43)N=C12` [US12226405, Example 6] returned an IC50 of 8 nM.
